Laboratory results: PubChem BioAssay (NCI)
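Following 48 hours of exposure in 96-well plates, responses at five concentrations were used to interpolate endpoints linearly. GI50 = concentration required for 50% inhibition of growth. TGI denotes the concentration required for complete inhibition of growth.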

How the values were obtained:
Test in all cases: NCI tumour cell line growth inhibition, 48 h
OVCAR-4 ovarian = tested on: OVCAR-4 ovarian
TK-10 renal = tested on: TK-10 renal
UACC-257 melanoma = tested on: UACC-257 melanoma
HCC-2998 colon = tested on: HCC-2998 colon
HT29 colon = tested on: HT29 colon
SNB-19 CNS = tested on: SNB-19 CNS
HL-60(TB) leukemia = tested on: HL-60(TB) leukemia
SW-620 colon = tested on: SW-620 colon
CAKI-1 renal = tested on: CAKI-1 renal
NCI/ADR-RES ovarian = tested on: NCI/ADR-RES ovarian

Compound	TGI (OVCAR-4 ovarian) [µM]	TGI (TK-10 renal) [µM]	TGI (UACC-257 melanoma) [µM]	TGI (HCC-2998 colon) [µM]	TGI (HT29 colon) [µM]	TGI (SNB-19 CNS) [µM]	TGI (HL-60(TB) leukemia) [µM]	TGI (SW-620 colon) [µM]	TGI (CAKI-1 renal) [µM]	TGI (NCI/ADR-RES ovarian) [µM]	GI50 (OVCAR-4 ovarian) [µM]	GI50 (TK-10 renal) [µM]	GI50 (UACC-257 melanoma) [µM]	GI50 (HT29 colon) [µM]	GI50 (SNB-19 CNS) [µM]	GI50 (HL-60(TB) leukemia) [µM]	GI50 (NCI/ADR-RES ovarian) [µM]	GI50 (SW-620 colon) [µM]	GI50 (CAKI-1 renal) [µM]	GI50 (HCC-2998 colon) [µM]
COC(=O)C(=O)C(CC(=O)Nc1ccc(C)cc1)C(=O)OC (centres undefined)	> 100	> 100	> 100	> 100	> 100	> 100	> 100	> 100	> 100											
CN(C)C(=S)/N=c1\ssc(=S)n1C	> 100	> 100	> 100	> 100	> 100	> 100	> 100	> 100	> 100											
CC1=Nc2ccccc2SC(c2c(Cl)cccc2Cl)C1 (centres undefined)	4.56	3.89	3.3	3.18	1.57	2.7	1.12	1.34	5.3											
C[N+](C)(C)CC1CCCCC1=O (centres undefined)		> 100	30.9		38.3	> 100	34.7	29.7												
CN(C)N1C(=O)SCC(c2ccccc2)(c2ccccc2)C1=O		> 100	> 100	> 100	> 100	> 100	> 100	> 100	> 100	> 100										
NC(=O)c1cccnc1	> 100	> 100	> 100		> 100	> 100	> 100	> 100	> 100	> 100	> 100	> 100	> 100	> 100	> 100	> 100	> 100	> 100	> 100	
N=c1c2ccccc2sc2nc3ccccc3n12	> 100	> 100	> 100	> 100	> 100	> 100	> 100	> 100	> 100											
COc1ccc(O)c(C(=O)CCC(=O)O)c1	> 100	> 100	29	> 100	> 100	> 100	> 100	> 100												
CC(=O)c1ccc(NC(=O)C(=O)C(C(=O)/C=C/c2ccccc2)C2OC(=O)c3ccccc32)cc1 (centres undefined)	> 100	> 100	> 100	> 100	> 100	> 100	> 100	> 100	> 100											
O=C1c2ccccc2C(=O)C12CCc1ccccc12	> 100	> 100		> 100	> 100		> 100	> 100	> 100											
O=C(NN1C(=O)CSC1c1cccc(Cl)c1)C(O)c1ccccc1 (centres undefined)	> 100	> 100	> 100		> 100	> 100		> 100	> 100		66.7	> 100	> 100	> 100	> 100			> 100	90.3	
COC(=O)c1cc(=O)nc2cc3cccccc3n12		> 100	> 100	> 100	> 100	> 100	> 100	> 100												
CC(C)(C)NCC(O)COc1c(Br)c(Br)c(Br)c2c1OC(C)(C)C2 (centres undefined)		3.52	3.91		2.75		3.1	3.1	3.22			2.04	1.99	1.34		1.53		1.7	1.71	
CCSc1ccc([C@@H]2[C@@H](O)C(=O)N2c2cc(OC)c(OC)c(OC)c2)cc1	75.8	84.1	35	17.4	11.5	> 100	0.0367	> 100		23.9	0.0674	17.7	0.0877	< 0.0155	< 0.01	< 0.0134	0.0157	< 0.0121		0.0489
CCC1=CCN(c2cc(C)ccn2)OC1c1ccccc1 (centres undefined)	> 100		> 100	81.7	> 100	> 100	41.8	> 100	> 100											
CC(=O)OC(C(=O)[O][Sn]([CH3])([CH3])[CH3])c1ccccc1 (centres undefined)	> 100	> 100	> 100	> 100	> 100	> 100	> 100	> 100	> 100		> 100	> 100	> 100	> 100	> 100	> 100		> 100	> 100	> 100
CN/N=C(/c1nc2ccc([N+](=O)[O-])cc2[nH]c1=O)C(O)c1ccc(C(O)/C(=N\NC)c2nc3ccc([N+](=O)[O-])cc3[nH]c2=O)cc1 (centres undefined)		> 100	> 100	95.1	> 100	> 100	53.5	> 100	> 100											
CCCCCCC(O)CC[C@H]1CCC[C@@H](C)N1 (some centres undefined)	< 10	> 100	< 10	> 100	> 31.6	< 10	> 100	> 100	> 100											
CCOc1ccc(N=C2NC(=O)C(CC(=O)Nc3ccccc3[N+](=O)[O-])S2)cc1 (centres undefined)	> 100	> 100	> 100	> 100	> 100	> 100	> 100	> 100	> 100											
O=c1c2c(-c3ccccc3)c3ccccc3nc2cnn1-c1ccccc1	> 100	> 100	> 100	> 100	> 100	> 100	> 100	> 100	> 100											
COc1ccc(/C=C2\CCC(CCN(C)C)(C3=CCCC3)C2=O)cc1 (centres undefined)	44.5	30.7	30.8	32.9	32.8	31.6	36.6	31	22.8											
